{
  "source": "ChEMBL document CHEMBL5038633",
  "about": "(J Med Chem, 2022)",
  "key": {"[1]": {"target": "Sodium channel protein type 4 subunit alpha (Homo sapiens, UniProt P35499)", "assay": "Inhibition of human Nav1.4 stably expressed in cells with train pulses to -20 mV at 0.1 Hz and holding potential of -95 mV by whole-cell Qube-automated patch clamp assay", "type": "cell-based"}, "[2]": {"target": "Sodium channel protein type 8 subunit alpha (Homo sapiens, UniProt Q9UQD0)", "assay": "Inhibition of human Nav1.6 stably expressed in cells with train pulses to -20 mV at 0.1 Hz and holding potential of -85 mV by whole-cell Qube-automated patch clamp assay", "type": "cell-based"}, "[3]": {"target": "Sodium channel protein type 9 subunit alpha (Rattus norvegicus, UniProt O08562)", "sequence (O08562 whole entry)": "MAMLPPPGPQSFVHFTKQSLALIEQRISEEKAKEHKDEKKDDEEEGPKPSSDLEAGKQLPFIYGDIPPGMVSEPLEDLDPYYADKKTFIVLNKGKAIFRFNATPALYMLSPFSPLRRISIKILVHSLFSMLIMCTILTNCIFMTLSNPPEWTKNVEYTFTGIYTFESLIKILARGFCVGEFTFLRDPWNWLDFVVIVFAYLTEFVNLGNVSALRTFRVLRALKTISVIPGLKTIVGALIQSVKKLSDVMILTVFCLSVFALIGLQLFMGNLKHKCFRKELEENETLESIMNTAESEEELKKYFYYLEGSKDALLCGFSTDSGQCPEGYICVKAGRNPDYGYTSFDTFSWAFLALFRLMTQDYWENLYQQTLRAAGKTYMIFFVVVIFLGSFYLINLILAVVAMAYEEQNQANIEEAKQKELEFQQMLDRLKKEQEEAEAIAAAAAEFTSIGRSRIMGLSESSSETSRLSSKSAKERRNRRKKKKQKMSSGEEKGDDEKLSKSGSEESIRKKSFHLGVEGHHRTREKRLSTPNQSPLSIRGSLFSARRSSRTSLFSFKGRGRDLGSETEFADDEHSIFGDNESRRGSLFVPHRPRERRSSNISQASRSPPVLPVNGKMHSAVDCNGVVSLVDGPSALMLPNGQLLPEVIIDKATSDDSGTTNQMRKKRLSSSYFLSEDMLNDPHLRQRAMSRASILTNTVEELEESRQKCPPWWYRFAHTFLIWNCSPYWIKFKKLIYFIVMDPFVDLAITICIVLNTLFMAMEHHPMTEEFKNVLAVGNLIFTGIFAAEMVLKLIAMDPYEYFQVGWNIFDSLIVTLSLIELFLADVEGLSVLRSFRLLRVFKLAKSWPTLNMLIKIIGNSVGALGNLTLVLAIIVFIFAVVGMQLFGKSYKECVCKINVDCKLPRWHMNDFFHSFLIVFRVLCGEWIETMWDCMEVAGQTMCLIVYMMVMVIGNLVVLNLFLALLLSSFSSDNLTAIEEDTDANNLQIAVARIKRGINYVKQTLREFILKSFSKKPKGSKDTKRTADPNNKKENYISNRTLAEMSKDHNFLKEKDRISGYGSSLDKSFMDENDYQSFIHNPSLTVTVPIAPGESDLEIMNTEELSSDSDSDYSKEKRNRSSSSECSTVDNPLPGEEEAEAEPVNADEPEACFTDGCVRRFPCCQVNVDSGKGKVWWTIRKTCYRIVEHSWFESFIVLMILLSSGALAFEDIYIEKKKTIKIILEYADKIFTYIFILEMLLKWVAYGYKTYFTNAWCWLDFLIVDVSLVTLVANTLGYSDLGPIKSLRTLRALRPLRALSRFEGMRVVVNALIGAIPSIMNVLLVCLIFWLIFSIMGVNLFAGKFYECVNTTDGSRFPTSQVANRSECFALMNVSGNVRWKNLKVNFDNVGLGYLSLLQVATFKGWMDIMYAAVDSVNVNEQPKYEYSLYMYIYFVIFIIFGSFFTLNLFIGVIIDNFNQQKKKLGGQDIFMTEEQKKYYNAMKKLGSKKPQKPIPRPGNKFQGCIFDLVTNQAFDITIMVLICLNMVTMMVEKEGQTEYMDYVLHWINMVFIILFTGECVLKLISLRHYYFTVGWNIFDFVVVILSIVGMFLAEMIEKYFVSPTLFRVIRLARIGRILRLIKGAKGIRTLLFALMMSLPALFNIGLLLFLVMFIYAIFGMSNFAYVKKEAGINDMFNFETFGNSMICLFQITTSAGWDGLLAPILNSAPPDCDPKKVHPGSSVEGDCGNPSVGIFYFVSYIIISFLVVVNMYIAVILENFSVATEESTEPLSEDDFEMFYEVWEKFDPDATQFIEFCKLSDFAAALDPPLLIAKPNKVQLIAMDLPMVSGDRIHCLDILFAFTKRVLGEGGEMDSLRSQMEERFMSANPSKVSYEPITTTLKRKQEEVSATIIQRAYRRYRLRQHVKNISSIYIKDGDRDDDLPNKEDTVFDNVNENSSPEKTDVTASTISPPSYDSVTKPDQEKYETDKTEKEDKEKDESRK", "assay": "Inhibition of rat Nav1.7 stably expressed in cells with train pulses to -20 mV at 0.1 Hz and holding potential of -90 mV by whole-cell QPatch HT assay", "type": "cell-based"}, "[4]": {"target": "Sodium channel protein type 2 subunit alpha (Homo sapiens, UniProt Q99250)", "assay": "Inhibition of human Nav1.2 stably expressed in cells with train pulses to -20 mV at 0.1 Hz and holding potential of -95 mV by Qube-automated patch clamp assay", "type": "cell-based"}, "[5]": {"target": "Voltage-dependent L-type calcium channel subunit alpha-1C (Homo sapiens, UniProt Q13936)", "sequence (Q13936 whole entry)": "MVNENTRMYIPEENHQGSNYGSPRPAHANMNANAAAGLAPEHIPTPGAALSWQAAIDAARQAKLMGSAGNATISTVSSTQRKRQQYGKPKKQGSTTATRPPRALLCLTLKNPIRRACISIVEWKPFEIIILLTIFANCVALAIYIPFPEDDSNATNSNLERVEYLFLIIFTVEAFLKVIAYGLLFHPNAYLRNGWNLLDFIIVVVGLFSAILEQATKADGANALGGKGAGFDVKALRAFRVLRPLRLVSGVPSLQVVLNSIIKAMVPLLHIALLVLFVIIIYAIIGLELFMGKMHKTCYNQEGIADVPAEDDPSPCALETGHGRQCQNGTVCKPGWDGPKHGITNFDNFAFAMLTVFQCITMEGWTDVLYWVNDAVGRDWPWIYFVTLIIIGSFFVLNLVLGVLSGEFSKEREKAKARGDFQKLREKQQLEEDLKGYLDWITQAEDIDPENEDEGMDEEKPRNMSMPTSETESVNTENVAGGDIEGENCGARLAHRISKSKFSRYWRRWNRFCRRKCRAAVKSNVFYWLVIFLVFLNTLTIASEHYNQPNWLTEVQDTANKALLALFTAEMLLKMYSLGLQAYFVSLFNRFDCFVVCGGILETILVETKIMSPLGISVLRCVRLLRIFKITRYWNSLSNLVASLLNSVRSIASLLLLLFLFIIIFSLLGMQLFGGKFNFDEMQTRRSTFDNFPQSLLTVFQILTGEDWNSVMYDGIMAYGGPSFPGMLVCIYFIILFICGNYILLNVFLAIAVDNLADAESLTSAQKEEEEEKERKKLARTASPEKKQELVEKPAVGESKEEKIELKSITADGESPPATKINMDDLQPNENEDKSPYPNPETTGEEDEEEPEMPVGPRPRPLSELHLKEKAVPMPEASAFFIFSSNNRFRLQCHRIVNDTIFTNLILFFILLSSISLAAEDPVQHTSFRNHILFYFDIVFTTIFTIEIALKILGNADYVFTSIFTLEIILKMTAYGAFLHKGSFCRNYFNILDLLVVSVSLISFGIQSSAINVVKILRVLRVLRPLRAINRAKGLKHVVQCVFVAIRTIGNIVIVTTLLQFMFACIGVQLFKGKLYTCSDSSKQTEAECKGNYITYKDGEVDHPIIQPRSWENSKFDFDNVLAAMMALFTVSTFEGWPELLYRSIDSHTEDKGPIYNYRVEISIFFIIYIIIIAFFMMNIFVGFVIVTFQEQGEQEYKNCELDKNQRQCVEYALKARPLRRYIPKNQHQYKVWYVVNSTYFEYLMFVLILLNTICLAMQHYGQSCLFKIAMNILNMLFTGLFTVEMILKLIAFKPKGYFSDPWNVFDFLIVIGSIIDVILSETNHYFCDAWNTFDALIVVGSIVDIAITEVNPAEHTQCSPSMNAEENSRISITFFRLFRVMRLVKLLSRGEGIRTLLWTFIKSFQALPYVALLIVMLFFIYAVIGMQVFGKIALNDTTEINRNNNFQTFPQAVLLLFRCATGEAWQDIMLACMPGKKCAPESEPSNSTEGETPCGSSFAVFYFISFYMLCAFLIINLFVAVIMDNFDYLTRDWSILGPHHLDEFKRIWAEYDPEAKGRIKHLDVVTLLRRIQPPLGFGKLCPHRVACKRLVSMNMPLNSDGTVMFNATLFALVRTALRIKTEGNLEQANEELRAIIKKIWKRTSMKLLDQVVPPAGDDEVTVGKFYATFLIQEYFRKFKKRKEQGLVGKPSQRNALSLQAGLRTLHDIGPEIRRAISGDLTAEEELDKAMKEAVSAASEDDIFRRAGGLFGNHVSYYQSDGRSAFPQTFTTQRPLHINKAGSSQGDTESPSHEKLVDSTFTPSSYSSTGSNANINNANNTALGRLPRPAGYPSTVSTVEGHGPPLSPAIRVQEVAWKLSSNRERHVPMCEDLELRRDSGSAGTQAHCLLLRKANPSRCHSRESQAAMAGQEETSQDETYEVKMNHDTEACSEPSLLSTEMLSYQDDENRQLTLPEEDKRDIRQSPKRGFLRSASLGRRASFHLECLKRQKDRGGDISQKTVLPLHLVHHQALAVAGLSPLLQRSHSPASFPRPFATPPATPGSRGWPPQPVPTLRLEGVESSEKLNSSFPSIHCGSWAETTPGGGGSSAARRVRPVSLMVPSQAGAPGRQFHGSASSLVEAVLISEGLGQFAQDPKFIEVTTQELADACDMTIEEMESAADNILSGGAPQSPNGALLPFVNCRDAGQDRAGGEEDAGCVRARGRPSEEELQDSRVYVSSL", "assay": "Inhibition of human Cav1.2 stably expressed in HEK293 cells incubated for 30 mins in dark by Fluo-4 AM dye based FLIPR assay", "type": "cell-based"}, "[6]": {"target": "Voltage-gated inwardly rectifying potassium channel KCNH2 (Homo sapiens, UniProt Q12809)", "assay": "Inhibition of human ERG by PatchXpress assay", "type": "toxicity"}, "[7]": {"target": "Sodium channel protein type 5 subunit alpha (Homo sapiens, UniProt Q14524)", "assay": "Inhibition of human Nav1.5 by PatchXpress assay", "type": "toxicity"}, "[8]": {"assay": "Inhibition of mast cell degranulation in Wistar Han rat peritoneal lavage mast cells assessed as inhibition histamine release by measuring lowest concentration at which histamine release observed measured after 30 mins", "type": "functional", "conditions": "0.5 h"}, "[9]": {"assay": "Ratio of IC50 for inhibition of rat Nav1.7 stably expressed in cells to EC50 for antinociceptive activity against Sprague-Dawley rat model of thermal stimuli induced nociception assessed as concentration required for maximal tail flick withdrawal latency", "type": "functional"}, "Rattus norvegicus [10]": {"test_system": "Rattus norvegicus", "assay": "Antinociceptive activity against Sprague-Dawley rat model of thermal stimuli induced nociception assessed as increase in tail withdrawal latency administered subcutaneously as single dose measured up to 300 mins by tail flick test", "type": "functional, organism-based", "conditions": "dose 1-2 mg/kg, time min <=300"}, "Rattus norvegicus [11]": {"test_system": "Rattus norvegicus", "assay": "Antinociceptive activity against Sprague-Dawley rat model of thermal stimuli induced nociception assessed as concentration required for maximal tail flick withdrawal latency administered subcutaneously as single dose measured up to 300 mins by tail flick test", "type": "functional, organism-based", "conditions": "5 h"}, "[12]": {"assay": "Half life in Wistar Han rat at 0.3 mg/kg, iv measured upto 24 hrs by LC/MS/MS analysis", "type": "ADME, organism-based", "conditions": "in vivo"}},
  "data": [
    {"smiles": "CSCC[C@@H]1NC(=O)CNC(=O)[C@H](CCC(=O)O)NC(=O)[C@@H]2CSSC[C@H](NC(=O)[C@@H](N)Cc3ccc(O)cc3)C(=O)N[C@@H](CCC(N)=O)C(=O)N[C@@H](CCCCN)C(=O)N[C@@H](Cc3c[nH]c4ccccc34)C(=O)N[C@@H](CCSC)C(=O)N[C@@H](Cc3c[nH]c4ccccc34)C(=O)N[C@@H]([C@@H](C)O)C(=O)N[C@H]3CSSC[C@H](NC(=O)[C@H](C(C)C)NC1=O)C(=O)N[C@@H](CCCNC(=N)N)C(=O)N[C@@H](CC(C)C)C(=O)N[C@@H](Cc1c[nH]c4ccccc14)C(=O)N[C@H](C(=O)N[C@@H](CCCCN)C(=O)N[C@@H](CCCCN)C(=O)N[C@@H](CCCCN)C(=O)N[C@@H](CC(C)C)C(=O)N[C@@H](Cc1c[nH]c4ccccc14)C(N)=O)CSSC[C@H](NC(=O)[C@H](CCCCN)NC(=O)[C@H](CCCNC(=N)N)NC(=O)[C@H](CCC(=O)O)NC(=O)[C@H](CO)NC(=O)[C@H](CC(=O)O)NC3=O)C(=O)N2", "values": [
      {"measurement": "IC50", "setting": "[1]", "result": 0.093, "unit": "µM"},
      {"measurement": "IC50", "setting": "[2]", "result": 0.075, "unit": "µM"},
      {"measurement": "IC50", "setting": "[3]", "result": 0.0013, "unit": "µM"},
      {"measurement": "IC50", "setting": "[4]", "result": 1.5, "unit": "µM"},
      {"measurement": "IC50", "setting": "[5]", "result": 1.4, "unit": "µM"},
      {"measurement": "IC50", "setting": "[6]", "result": 0.022, "unit": "µM"},
      {"measurement": "IC50", "setting": "[7]", "result": 0.18, "unit": "µM"},
      {"measurement": "LED", "setting": "[8]", "result": 0.37, "unit": "µM"},
      {"measurement": "fold change (FC)", "setting": "[9]", "result": 50},
      {"measurement": "Activity", "setting": "Rattus norvegicus [10]", "result": "Dose-Dependent Effect"},
      {"measurement": "EC50", "setting": "Rattus norvegicus [11]", "result": 0.056, "unit": "µM"},
      {"measurement": "half-life", "setting": "[12]", "result": "< 3", "unit": "h"}
    ]}
  ]
}
